In ChEMBL document CHEMBL3045262, “Synthesis and Insecticidal Activity of Novel 1-Benzoyl-3-phenylurea Derivatives with Polyfluoroethylsulfenyl, -sulfonyl, and-sulfinyl Substituents” (1992):

Key:
Type in all cases: functional
[1] = system: Spodoptera litura; test: Larvicidal activity against third-instar larvae of Spodoptera litura infested in soybean seedling assessed as mortality at 2 ppm sprayed 6 days prior to infestation measured after 5 days
[2] = system: Spodoptera litura; test: Larvicidal activity against third-instar larvae of Spodoptera litura infested in soybean seedling assessed as mortality at 2 ppm sprayed 1 day prior to infestation measured after 5 days
[3] = system: Adoxophyes orana; test: Larvicidal activity against second-instar larvae of Adoxophyes orana infested soybean seedling assessed as mortality at 5 ppm measured after 7 days; conditions: 168 h
[4] = system: Plutella xylostella; test: Larvicidal activity against second-instar larvae of Plutella xylostella (diamondback moth) infested raddish seedling assessed as mortality at 3.3 ppm sprayed 2 hr prior to infestation measured after 4 days

SMILES	mortality at 2 ppm [1] [%]	mortality at 2 ppm [2] [%]	mortality at 5 ppm [3] [%]	mortality at 3.3 ppm [4] [%]
Cc1cc([S+]([O-])C(F)(F)C(F)Cl)ccc1NC(=O)NC(=O)c1c(F)cccc1F (stereo not given)	100	100	100	100
Cc1cc(S(=O)(=O)C(F)(F)C(F)Cl)ccc1NC(=O)NC(=O)c1c(F)cccc1F (stereo not given)	100	100	95	100
O=C(NC(=O)c1c(F)cccc1F)Nc1cc(Cl)c(SC(F)(F)C(F)Cl)cc1Cl (stereo not given)	100	100	100	100
O=C(NC(=O)c1c(F)cccc1F)Nc1cc(Cl)c([S+]([O-])C(F)(F)C(F)Cl)cc1Cl (stereo not given)	100	100	100	100
O=C(NC(=O)c1c(F)cccc1F)Nc1cc(Cl)c(S(=O)(=O)C(F)(F)C(F)Cl)cc1Cl (stereo not given)	95	100	100	100
Cc1cc(SC(F)(F)C(F)Cl)c(C)cc1NC(=O)NC(=O)c1c(F)cccc1F (stereo not given)	100	100	95	100
Cc1cc([S+]([O-])C(F)(F)C(F)Cl)c(C)cc1NC(=O)NC(=O)c1c(F)cccc1F (stereo not given)	100	100	100	100
Cc1cc(S(=O)(=O)C(F)(F)C(F)Cl)c(C)cc1NC(=O)NC(=O)c1c(F)cccc1F (stereo not given)	100	100	100	100
O=C(NC(=O)c1c(F)cccc1F)Nc1ccc(SC(F)(F)C(F)Cl)c(Cl)c1Cl (stereo not given)	100	100	100	95
O=C(NC(=O)c1c(F)cccc1F)Nc1ccc([S+]([O-])C(F)(F)C(F)Cl)c(Cl)c1Cl (stereo not given)	100	100	100	100
O=C(NC(=O)c1c(F)cccc1F)Nc1ccc(S(=O)(=O)C(F)(F)C(F)Cl)c(Cl)c1Cl (stereo not given)	100	100	100	100
Cc1c(NC(=O)NC(=O)c2c(F)cccc2F)ccc(SC(F)(F)C(F)Cl)c1C (stereo not given)	100	100	100	100
Cc1c(NC(=O)NC(=O)c2c(F)cccc2F)ccc([S+]([O-])C(F)(F)C(F)Cl)c1C (stereo not given)	100	100	100	100
Cc1c(NC(=O)NC(=O)c2c(F)cccc2F)ccc(S(=O)(=O)C(F)(F)C(F)Cl)c1C (stereo not given)	100	100	100	100
O=C(NC(=O)c1c(F)cccc1F)Nc1ccc([S+]([O-])C(F)(F)C(F)F)cc1 (stereo not given)	15	5	–	100
O=C(NC(=O)c1c(F)cccc1F)Nc1ccc(S(=O)(=O)C(F)(F)C(F)F)cc1	0	0	–	90
Cc1cc(SC(F)(F)C(F)F)c(C)cc1NC(=O)NC(=O)c1c(F)cccc1F	100	100	90	85
Cc1cc([S+]([O-])C(F)(F)C(F)F)c(C)cc1NC(=O)NC(=O)c1c(F)cccc1F (stereo not given)	100	100	100	100
